Source: US7163920B2, “Peptide with osteogenic activity” (Ethicon, Inc., priority 2003, dated 2007)

Columns and labels:
human fibroblasts = experiment: 3H-thymidine incorporation, proliferative response of human fibroblasts; format: cell-based; details: for 3H-Thymidine Incorporation Into Fibroblasts: Table 4 (human fibroblasts per Example 4), 48 hours
Method: (§1) Primary human osteoblasts were trypsinized and cell counts determined. Cells were resuspended at a concentration of 0.5×10^5 cells/ml in growth medium [Dulbeccos Modified Eagles Medium (DMEM) 10% Fetal Bovine Serum (FBS), 100 units Penicillin and 50 μg/ml Streptomycin]. A 100 μl aliquot of cells was added to each well in a 96 well dish. Cells were allowed to adhere for 24 hours and then refed with DMEM containing 0.5% FBS for 24 hours. Thereafter, several concentrations (10, 100, 500 μg/ml final concentration) of peptide in DMEM containing 0.5% FBS were added to different wells in quadruplicate. These plates were incubated in a cell culture incubator at 37° C. 5% CO2 for 48 hours. Subsequently, 0.1 μCi of ^3H-thymidine was added to each well, and incubated at 37° C. for an additional 3 hours prior to harvest. Cells were lysed and the lysate was placed in scintillation fluid and the amount of thymidine incorporated was determined by beta counting (in Counts Per Minute, or CPM).
(§2) The effect of the peptide […] (SEQ. ID NO: 1) on stimulation of human fibroblast proliferation was assessed by thymidine incorporation as described above. The experiments were set up as detailed in Example 1. Following serum starvation, cells were treated with the peptide at concentration of 10, 100, and 500 μg/ml of peptide in DMEM containing 0.5% FBS. These plates were incubated at 37° C. in 5% CO2 for 48 hours and processed for analysis as described in Example 1.

[1] = Reverse phase HPLC for peptide integrity after disulfide bond formation; format: physicochemical
Method: (§3) The formation of inter- or intra-chain disulfide bonds was determined by Elman's test and a reverse phase HPLC method. The peptide represented by SEQ. ID NO: 1 was dissolved in 50 mM sodium acetate, pH 5.2, containing 1 mM EDTA to a stock solution of 10 mM. The stock solution was further diluted with either 50 mM sodium acetate buffer or Elman's reaction buffer ([…], pH 8.0, containing 1 mM EDTA) to a final concentration of 0.5 mM. Samples prepared with sodium acetate buffer were kept at 5° C. for HPLC analysis later.
To determine the integrity of the peptide of SEQ. ID NO: 1 after disulfide bond formations, samples in sodium acetate buffer (1G1) and in Elman's reaction buffer (1G2) were subjected to reverse phase HPLC after a 24 hour incubation at 37° C. In particular, a 0–80% acetonitrile gradient in 0.1% TFA was used over 15 minutes at a flow rate of 2 ml/min on a Vydac C-18 column. Detection was at 214 nm.

[2] = test system: Primary human osteoblasts; experiment: 3H-thymidine incorporation, proliferative response of human osteoblasts; format: cell-based
Method: as §1
To help determine a maximal stimulation of cell proliferation, the study was repeated with concentrations of 10, 50, 100, and 200 μg/ml final concentration) of the peptide represented by SEQ. ID NO: 1 in DMEM containing 0.5% FBS.
The experiments were set up as described for Example 1, with proliferation assessed by measurement of thymidine incorporation into newly synthesized DNA. […] These plates were incubated at 37° C. in 5% CO2 for 48 hours and processed for analysis as mentioned in Example 1.

human chondrocytes = experiment: 3H-thymidine incorporation, proliferative response of human chondrocytes; format: cell-based; details: for 3H-Thymidine Incorporation Into Chondrocytes: Table 3, 48 hours
Method: as §1
as §2, with “chondrocyte” for “fibroblast”

[3] = Elman's test (DTNB) for free sulfhydryl groups, with UV measurement; format: physicochemical; details: for Free Sulfhydryl Group Content, Optical density At 412 nM: 0.5 mM peptide in Elman's reaction buffer pH 8.0
Method: as §3
The reagent used in Elman's test is 5,5′-dithio-bis-(2-nitrobenzoic acid), also know as DTNB. […] Sulfhydryl groups can be quantitated in a sample by comparison to a standard curve prepared with know concentrations of sulfhydryl-containing compound such as cysteine. The measurement of free sulfhydryl group was performed when the peptide was freshly prepared and after 24 hours incubation at 37° C. The incubation step was designed to mimic the cell culture conditions and to create conditions for inter- or intra-chain disulfide bond formations. To examine the integrity of the peptide after incubation, a UV measurement was performed when the peptide (SEQ. ID NO: 1) was freshly prepared and after 24 hours incubation.

[4] = after 24 hrs incubation at 37° C.

CGGGRWCG (synthesized primer) [ID NO: 1, synthesized by Invitrogen Corporation]
stimulation of proliferation of human fibroblasts (human fibroblasts; 10, 100, and 500 μg/ml): did not stimulate proliferation
3H-Thymidine Incorporation Into Fibroblasts (human fibroblasts; peptide 10 μg/ml): 1281 +/− 86 CPM
3H-Thymidine Incorporation Into Fibroblasts (human fibroblasts; peptide 100 μg/ml): 1103 +/− 76 CPM
3H-Thymidine Incorporation Into Fibroblasts (human fibroblasts; peptide 500 μg/m1): 1088 +/− 64 CPM
disulfide structure formed, reverse phase HPLC ([1]; Elman's reaction buffer pH 8.0 (1G2), 24 hour incubation at 37° C.): formed intra-chain disulfide bonds (ring structure) and not a higher lever structure
integrity of the peptide by reverse phase HPLC ([1]; after 24 hours incubation at 37° C.): intact
sulfhydryl state, reverse phase HPLC ([1]; sodium acetate buffer pH 5.2 (1G1), 24 hours incubation): predominately contained free sulfhydryl groups
3H-Thymidine Incorporation Into Osteoblasts ([2]; Table 1A, peptide 0 μg/ml, DMEM 0.5% FBS, 48 hours): 591 +/− 39 CPM
stimulation of proliferation as compared to controls treated with 0.1% BSA ([2]; Table 1A, peptide 100 μg/ml): 2.5 fold
3H-Thymidine Incorporation Into Osteoblasts ([2]; Table 1A, peptide 100 μg/ml, DMEM 0.5% FBS, 48 hours): 1228 +/− 157 CPM
stimulation of osteoblast proliferation ([2]; Table 1A, peptide 500 μg/ml): no statistical stimulation
3H-Thymidine Incorporation Into Osteoblasts ([2]; Table 1A, peptide 500 μg/ml, DMEM 0.5% FBS, 48 hours): 629 +/− 46 CPM
3H-Thymidine Incorporation Into Osteoblasts ([2]; Table 1B (repeat study), peptide 10 μg/ml): 807 +/− 45 CPM
3H-Thymidine Incorporation Into Osteoblasts ([2]; Table 1B (repeat study), peptide 50 μg/ml): 948 +/− 62 CPM
3H-Thymidine Incorporation Into Osteoblasts ([2]; Table 1B (repeat study), peptide 100 μg/ml): 1150 +/− 37 CPM
3H-Thymidine Incorporation Into Osteoblasts ([2]; Table 1B (repeat study), peptide 200 μg/ml): 1565 +/− 98 CPM
concentration of maximal stimulation of proliferation (dose dependant) ([2]; Table 1B, 10-200 μg/ml tested): 200 µg/mL
stimulation of proliferation relative to cells cultured in the presence of serum ([2]; Table 1B, maximal stimulation at 200 μg/ml vs 10% FBS): approximately 75%
3H-Thymidine Incorporation Into Osteoblasts ([2]; Table 2 (Example 2), peptide 200 ug/ml): 3446 +/− 333 CPM
stimulation of osteoblast proliferation (fold, words) ([2]; Table 2, peptide 200 ug/ml): two fold
stimulation of proliferation of human chondrocytes (human chondrocytes; 10, 100, and 500 μg/ml): did not stimulate proliferation
3H-Thymidine Incorporation Into Chondrocytes (human chondrocytes; peptide 10 μg/ml): 803 +/− 96 CPM
3H-Thymidine Incorporation Into Chondrocytes (human chondrocytes; peptide 100 μg/ml): 726 +/− 88 CPM
3H-Thymidine Incorporation Into Chondrocytes (human chondrocytes; peptide 500 μg/ml): 640 +/− 80 CPM
free sulfhydryl group content after incubation ([3]; after 24 hour incubation at 37° C., 412 nM): reduced significantly
Optical density At 280 nM (UV measurement, integrity of the peptide) [3, 4]: 2.037
Free Sulfhydryl Group Content, Optical density At 412 nM [3, 4]: 0.011
change of absorbance at 280 nM ([3]; fresh vs 24 hour old samples): did not change
Optical density At 280 nM (UV measurement, integrity of the peptide) ([3]; freshly prepared): 2.127
Free Sulfhydryl Group Content, Optical density At 412 nM ([3]; freshly prepared): 0.71
